Measured values from US8138194B2, “Fused bicyclic pyrimidine compounds as aurora kinase inhibitors” (National Health Research Institutes, priority 2008, dated 2012).
Several values for one entry are separate records, joined by “and”; a condition that tells them apart may be missing. Equal entries are not always repeated. Where two headings read alike, the source gives them in different places.

Key:
[1] = tested on: HCT-116 cells; experiment: HCT-116 cell viability MTS assay; format: cell-based; conditions: Homo sapiens
Experimental: HCT-116 cell viability was examined by the MTS assay (Promega, Madison, Wis., USA). 2000 HCT-116 cells in 100 μL McCoy's 5a medium were seeded in each well of a 96-well plate. After 96-h incubation with a test compound, the cells were incubated with 20 μL of a MTS/PMS mixture (MTS/PMS ratio: 20: 1) for 2 h at 37° C. in a humidified incubator with 5% CO2 to allow viable cells to convert the tetrazolium salt (MTS) into formazan. The amount/concentration of formazan, which indicates the number of live cells, was determined by measuring the absorbance at 490 nm using a PerkinElmer Victor2 plate reader (PerkinElmer, Shelton, Cont., USA).

[2] = target: T1, GST-tAurora A (123-401aa) fusion protein (Homo sapiens, UniProt O14965); experiment: Aurora Kinase A luminescent kinase assay; format: biochemical; conditions: IC50 (concentration of a test compound at which activity of 50% of Aurora A is inhibited)
T1 construct: GST-tAurora A (123-401aa) fusion protein; made in house; host or cells: Sf9 insect cells (baculovirus, pBacPAK8)
T1 sequence (O14965 123-401): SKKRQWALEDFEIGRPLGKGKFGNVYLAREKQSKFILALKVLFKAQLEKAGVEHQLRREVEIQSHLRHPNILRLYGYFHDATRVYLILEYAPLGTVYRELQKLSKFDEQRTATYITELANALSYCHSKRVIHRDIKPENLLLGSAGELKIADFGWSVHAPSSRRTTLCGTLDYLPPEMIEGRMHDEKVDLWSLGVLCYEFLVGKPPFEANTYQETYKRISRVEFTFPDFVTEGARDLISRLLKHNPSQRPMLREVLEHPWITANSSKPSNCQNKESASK
Experimental: The Aurora A catalytic domain with an N-terminal GST tag was constructed in pBacPAK8 plasmid and expressed in sf9 cells. […] To concentrate GST-tAurora A, buffer was replaced with Tris buffer (100 mM Tris (pH 7.5), 300 mM NaCl, 1 mM EDTA, 4 mM DTT) using Amicon ultra-15 (MWCO:30K, Millipore) to 2.4 mg/ml. After the addition of equal volume of glycerol and 0.04% Triton X-100, the proteins were stored aliquoted at −80° C.
Briefly, a test compound, enzyme, substrate-tetra(LRRWSLG), DTT and ATP were dissolved in Aur buffer (50 mM Tris-HCl pH 7.4, 10 mM NaCl, 10 mM MgCl2, and 100 μg/ml BSA) individually before the assay. […] 5 μM ATP (5 μl), 1 mM DTT (5 μl) and 0.1 mM tetra(LRRWSLG) peptide substrate (5 μl) were added into the reactions of test compounds and GST-tAurora A. The reactions were incubated at 37° C. for 90 min. 50 μl of Kinase-Glo Plus Reagent (V3771, Promega) was added into the reactions, followed by the incubation at 25° C. for 20 min.

Row | SMILES | IC50 [2] | other results
1 | O=C(Nc1ccccc1)Nc1ccc(CCNc2ncnc3oc(-c4ccccc4)c(-c4ccccc4)c23)cc1 [Compound 6, 1-(4-(2-(5,6-diphenylfuro[2,3-d]pyrimidin-4-ylamino)ethyl)phenyl)-3-phenylurea] | – | IC50 ([1]; read-out: IC50 (concentration of a test compound which causes 50% of the cell death), HCT-116, 96-h incubation, MTS): 100 to 900 nM
2 | CC(C)(C)OC(=O)N1CCN(CCCOc2ccc(-c3cc4c(NCCc5ccc(NC(=O)Nc6ccccc6)cc5)ncnc4o3)cc2)CC1 [Compound 242] | < 1000 nM and 45 to 400 nM | –
3 | O=C(Cc1ccccc1)Nc1ccc(CCNc2ncnc3oc(-c4ccccc4)c(-c4ccccc4)c23)cc1 [Compound 41] | 45 to 400 nM and < 1000 nM | –
4 | COc1ccc(-c2oc3ncnc(NCCc4ccc(NC(=O)Nc5ccccc5)cc4)c3c2-c2ccc(O)cc2)cc1 [Compound 66] | 45 to 400 nM and < 1000 nM | –
5 | Cc1cc(NC(=O)Nc2ccc(CCNc3ncnc4oc(-c5ccccc5)c(-c5ccccc5)c34)cc2)on1 [Compound 161] | < 1000 nM and 45 to 400 nM | –
6 | COc1cccc(NC(=O)Nc2ccc(CCNc3ncnc4oc(-c5ccccc5)c(-c5ccccc5)c34)cc2)c1 [Compound 40] | < 1000 nM | –
7 | C[Si](C)(C)C#Cc1c(-c2ccccc2)oc2ncnc(NCCc3ccc(NC(=O)Nc4ccccc4)cc3)c12 [Compound 81] | < 1000 nM | –
8 | Cc1ccc(NC(=O)Nc2ccc(CCNc3ncnc4oc(-c5ccccc5)c(-c5ccccc5)c34)cc2)cc1 [Compound 98] | 45 to 400 nM and < 1000 nM | –
9 | O=C(Nc1ccccc1)Nc1ccc(CCNc2ncnc3occ(-c4ccccc4)c23)cc1 [Compound 203] | < 1000 nM and 45 to 400 nM | –
10 | O=C(Nc1ccc(CCNc2ncnc3oc(-c4ccccc4)c(-c4ccccc4)c23)cc1)N1CCN(CCO)CC1 [Compound 34] | < 1000 nM | –
11 | Nc1ccc(CNc2ncnc3oc(-c4ccccc4)c(-c4ccccc4)c23)cc1 [Compound 1, N-(4-aminobenzyl)-5,6-diphenylfuro[2,3-d]pyrimidin-4-amine] | < 1000 nM | –
12 | S=C(Nc1ccccc1)Nc1ccc(CCNc2ncnc3oc(-c4ccccc4)c(-c4ccccc4)c23)cc1 [Compound 13] | 45 to 400 nM and < 1000 nM | –
13 | O=C(NCCCl)Nc1ccc(CCNc2ncnc3oc(-c4ccccc4)c(-c4ccccc4)c23)cc1 [Compound 19] | 45 to 400 nM and < 1000 nM | –
14 | O=C(Nc1ccc(CCNc2ncnc3oc(-c4ccccc4)c(-c4ccccc4)c23)cc1)Nc1cccc(F)c1F [Compound 91] | 45 to 400 nM and < 1000 nM | –
15 | CN(C)C(=O)Nc1ccc(CCNc2ncnc3oc(-c4ccccc4)c(-c4ccccc4)c23)cc1 [Compound 9] | 45 to 400 nM and < 1000 nM | –
16 | O=C(Nc1ccc(CCNc2ncnc3oc(-c4ccccc4)c(-c4ccccc4)c23)cc1)Nc1ccccc1[N+](=O)[O-] [Compound 97] | 45 to 400 nM and < 1000 nM | –
17 | CC(=O)Nc1cccc(NC(=O)Nc2ccc(CCNc3ncnc4oc(-c5ccccc5)c(-c5ccccc5)c34)cc2)c1 [Compound 64] | < 1000 nM | –
18 | O=C(Nc1ccc(CCNc2ncnc3oc(-c4ccccc4)c(-c4ccccc4)c23)cc1)Nc1c(F)cccc1F [Compound 94] | < 1000 nM | –
19 | CN(C)CCOc1ccc(-c2cc3c(NCCc4ccc(NC(=O)Nc5ccccc5)cc4)ncnc3o2)cc1 [Compound 207] | – | IC50 ([1]; HCT-116, 96 h, read-out: IC50 (concentration of a test compound which causes 50% of the cell death), HCT-116, 96-h incubation, MTS): 100 to 900 nM
20 | COc1cccc(-c2c(-c3ccccc3)oc3ncnc(NCCc4ccc(NC(=O)Nc5ccccc5)cc4)c23)c1 [Compound 59] | 45 to 400 nM and < 1000 nM | –
21 | O=C(Nc1ccc(CCNc2ncnc3oc(-c4ccccc4)cc23)cc1)c1ccccc1 [Compound 229] | < 1000 nM | –
22 | O=C(Nc1ccc(CCNc2ncnc3oc(-c4ccccc4)c(-c4ccccc4)c23)cc1)Nc1cnccn1 [Compound 151] | < 1000 nM | –
23 | O=C(Nc1ccccc1)Nc1ccc(CCNc2ncnc3oc4c(c23)CCCC4)cc1 [Compound 173] | < 1000 nM | –
24 | CCCCCNC(=O)Nc1ccc(CCNc2ncnc3oc(-c4ccccc4)c(-c4ccccc4)c23)cc1 [Compound 68] | < 1000 nM | –
25 | COC(=O)C(Cc1ccc(NC(=O)Nc2ccccc2)cc1)Nc1ncnc2oc(-c3ccccc3)c(-c3ccccc3)c12 (stereo not shown) [Compound 52] | < 1000 nM and 45 to 400 nM | –
26 | CN(C)c1ccc(NC(=O)Nc2ccc(CCNc3ncnc4oc(-c5ccccc5)c(-c5ccccc5)c34)cc2)cc1 [Compound 100] | < 1000 nM | –
27 | CN(C)Cc1cccc(NC(=O)Nc2ccc(CCNc3ncnc4oc(-c5ccccc5)c(-c5ccccc5)c34)cc2)c1 [Compound 119] | < 1000 nM and 45 to 400 nM | –
28 | CN(C)CCNC(=O)Nc1ccc(CCNc2ncnc3oc(-c4ccccc4)c(Cl)c23)cc1 [Compound 234] | < 1000 nM | –

Row | SMILES | IC50 [2] | other results
29 | O=Cc1ccc(-c2c(-c3ccccc3)oc3ncnc(NCCc4ccc(NC(=O)Nc5ccccc5)cc4)c23)o1 [Compound 76] | 45 to 400 nM and < 1000 nM | –
30 | CN1CCN(Cc2ccccc2NC(=O)Nc2ccc(CCNc3ncnc4oc(-c5ccccc5)c(-c5ccccc5)c34)cc2)CC1 [Compound 126] | < 1000 nM | –
31 | O=C(Nc1ccc(CCNc2ncnc3oc(-c4ccccc4)c(-c4ccccc4)c23)cc1)Nc1ccccc1Br [Compound 197] | < 1000 nM | –
32 | O=C(Nc1ccc(CCNc2ncnc3oc(-c4ccccc4)c(Cl)c23)cc1)c1ccccc1 [Compound 228] | < 1000 nM | –
33 | CCCCCCNC(=O)Nc1ccc(CCNc2ncnc3oc(-c4ccccc4)c(-c4ccccc4)c23)cc1 [Compound 69] | < 1000 nM | –
34 | O=C(Nc1ccc(CCNc2ncnc3oc(-c4ccccc4)c(-c4ccccc4)c23)cc1)N1CCN(c2ccc(F)cc2)CC1 [Compound 22] | < 1000 nM | –
35 | O=C(Nc1ccc(CCNc2ncnc3oc(-c4ccccc4)c(-c4ccccc4)c23)cc1)Nc1cc(F)cc(F)c1 [Compound 63] | 45 to 400 nM and < 1000 nM | –
36 | O=C(Nc1ccc(CCNc2ncnc3oc(-c4ccccc4)c(-c4ccccc4)c23)cc1)c1ccccc1 [Compound 5] | 45 to 400 nM and < 1000 nM | –
37 | O=C(Nc1ccc(CCNc2ncnc3oc(-c4ccccc4)c(-c4ccccc4)c23)cc1)Oc1ccccc1 [Compound 17] | 45 to 400 nM and < 1000 nM | –
38 | S=C(Nc1ccc(CCNc2ncnc3oc(-c4ccccc4)c(-c4ccccc4)c23)cc1)Oc1ccccc1 [Compound 74] | < 1000 nM | –
39 | O=C(Nc1ccc(CCNc2ncnc3oc(-c4ccccc4)c(-c4ccccc4)c23)cc1)Nc1cccc(Br)c1 [Compound 16] | < 1000 nM | –
40 | CN1CCN(Cc2ccc(NC(=O)Nc3ccc(CCNc4ncnc5oc(-c6ccccc6)c(-c6ccccc6)c45)cc3)cc2)CC1 [Compound 118] | < 1000 nM | –
41 | CN(C)CCNC(=O)Nc1ccc(CCNc2ncnc3oc(-c4ccccc4)cc23)cc1 [Compound 233] | < 1000 nM | –
42 | N#C/N=C(\Nc1ccccc1)Nc1ccc(CCNc2ncnc3oc(-c4ccccc4)c(-c4ccccc4)c23)cc1 [Compound 75] | < 1000 nM | –
43 | CCCNC(=O)Nc1ccc(CCNc2ncnc3oc(-c4ccccc4)c(-c4ccccc4)c23)cc1 [Compound 67] | 45 to 400 nM and < 1000 nM | –
44 | CCOC(=O)CNC(=O)Nc1ccc(CCNc2ncnc3oc(-c4ccccc4)c(-c4ccccc4)c23)cc1 [Compound 200] | < 1000 nM | –
45 | CC(=O)c1cccc(NC(=O)Nc2ccc(CCNc3ncnc4oc(-c5ccccc5)c(-c5ccccc5)c34)cc2)c1 [Compound 31] | 45 to 400 nM and < 1000 nM | –
46 | COc1ccc(NC(=O)Nc2ccc(CCNc3ncnc4oc(-c5ccccc5)c(-c5ccccc5)c34)cc2)cc1 [Compound 72] | < 1000 nM | –
47 | N#Cc1cccc(NC(=O)Nc2ccc(CCNc3ncnc4oc(-c5ccccc5)c(-c5ccccc5)c34)cc2)c1 [Compound 30] | 45 to 400 nM and < 1000 nM | –
48 | O=C(Nc1ccccc1)Nc1ccc(CCOc2ncnc3oc(-c4ccccc4)c(-c4ccccc4)c23)cc1 [Compound 27] | 45 to 400 nM and < 1000 nM | –
49 | O=C(Nc1ccc(CCNc2ncnc3oc(-c4ccccc4)c(-c4ccccc4)c23)cc1)Nc1ccccn1 [Compound 146] | 45 to 400 nM and < 1000 nM | –
50 | O=C(NCCN1CCOCC1)Nc1ccc(CCNc2ncnc3oc(-c4ccccc4)c(-c4ccccc4)c23)cc1 [Compound 20] | 45 to 400 nM and < 1000 nM | –
51 | O=C(NCc1ccccc1)Nc1ccc(CCNc2ncnc3oc(-c4ccccc4)c(-c4ccccc4)c23)cc1 [Compound 10] | 45 to 400 nM and < 1000 nM | –
52 | Cc1cccc(NC(=O)Nc2ccc(CCNc3ncnc4oc(-c5ccccc5)c(-c5ccccc5)c34)cc2)c1 [Compound 28] | 45 to 400 nM and < 1000 nM | –
53 | Cc1csc(NC(=O)Nc2ccc(CCNc3ncnc4oc(-c5ccccc5)c(-c5ccccc5)c34)cc2)n1 [Compound 163] | < 1000 nM and 45 to 400 nM | –
54 | O=C(Nc1ccccc1)Nc1ccc(CCNc2ncnc3oc(-c4ccccc4)c(-c4ccc([N+](=O)[O-])cc4)c23)cc1 [Compound 77] | 45 to 400 nM and < 1000 nM | –
55 | NC(=O)Nc1ccc(CCNc2ncnc3oc(-c4ccccc4)c(-c4ccccc4)c23)cc1 [Compound 7] | < 1000 nM | –
